Experimental data: ChEMBL document CHEMBL1201862, “PubChem BioAssay data set” (2004)
Activity calls are given as the source filed them.

Key:
[1] = target: T1, Sentrin-specific protease 8 (Homo sapiens, UniProt Q96LD8); format: functional;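 also: kinetic enzyme assay of SENP8 cleaving a Nedd8 protein substrate, dose-response confirmation of screening hits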
T1 sequence (Q96LD8 whole entry): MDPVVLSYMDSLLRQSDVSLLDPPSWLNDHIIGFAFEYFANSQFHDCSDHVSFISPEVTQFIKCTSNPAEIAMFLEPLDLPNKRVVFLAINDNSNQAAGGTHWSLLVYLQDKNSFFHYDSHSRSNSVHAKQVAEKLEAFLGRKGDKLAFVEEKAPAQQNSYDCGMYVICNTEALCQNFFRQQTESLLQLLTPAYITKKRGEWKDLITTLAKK

[2] = target: T2, E3 ubiquitin-protein ligase XIAP (Homo sapiens, UniProt P98170); experiment: small molecules displacing peptide from XIAP – biochemical, IAP family, fluorescence polarization (AID 1018); format: functional
[3] = target: T2, E3 ubiquitin-protein ligase XIAP; experiment: Counter Screen using XIAP-Bir3 for Chemical Antagonists of Bir1/2 domains of IAP-family anti-apoptotic proteins. [Related pubchem assays (depositor defined):AID1018, AID1449, AID1514, AID1638, AID1749, AID1750, AID488957, AID488963]
P388/ADR = experiment: cells; format: functional; conditions: Mus musculus
SN12K1 = experiment: cells; format: functional; conditions: Homo sapiens
P388 = experiment: cells; format: functional; conditions: Mus musculus
[4] = activation of miR-122 Renilla sensor silencing – cell-based, Huh7 psiCHECK-miR122, Renilla luciferase, cherry-picked, dose response (AID 651956); format: functional;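 also: huh7 hepatoma cells stably carrying a psiCHECK-2 miR-122 sensor plasmid; renilla luciferase signal reporting endogenous miR-122 activity after 48 h compound exposure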
[5] = viability of uninfected HEp-2 cells – cell-based, HTS, cytotoxicity control for RSV inhibitor project, dose response (AID 2410); format: functional; conditions: human respiratory syncytial virus
[6] = target: Peroxisome proliferator-activated receptor gamma/Nuclear receptor coactivator 3 (Homo sapiens, UniProt P37231); experiment: TR-FRET dose response biochemical High Throughput Screening assay for agonists of the steroid receptor coactivator 3 (SRC-3) recruitment by the peroxisome proliferator-activated receptor gamma (PPAR gamma): non-selective agonists. [Related pubchem assays: 1301 (Confirmation screen.), 1048 (Primary screen.)]; format: functional
[7] = target: Peroxisome proliferator-activated receptor gamma/Nuclear receptor coactivator 1 (Homo sapiens, UniProt P37231); experiment: TR-FRET dose response biochemical High Throughput Screening assay for agonists of the steroid receptor coactivator 1 (SRC-1) recruitment by the peroxisome proliferator-activated receptor gamma (PPAR gamma): non-selective agonists. [Related pubchem assays (depositor defined):AID1300, AID1808, AID504735, AID631]; format: protein assay
[8] = target: Peroxisome proliferator-activated receptor gamma/Nuclear receptor coactivator 2 (Homo sapiens, UniProt P37231); experiment: TR-FRET dose response biochemical High Throughput Screening assay for agonists of the steroid receptor coactivator 2 (SRC-2) recruitment by the peroxisome proliferator-activated receptor gamma (PPAR gamma): non-selective agonists. [Related pubchem assays: 1297, 1032 ]; format: functional
[9] = target: T3, Rac GTPase-activating protein 1 (Homo sapiens, UniProt Q9H0H5); experiment: blockers of MgcRacGAP-driven Rac1 GTP hydrolysis – biochemical, ADP Hunter fluorescence, primary and confirmatory, confirmation (AID 624330); format: functional
T3 sequence (Q9H0H5 whole entry): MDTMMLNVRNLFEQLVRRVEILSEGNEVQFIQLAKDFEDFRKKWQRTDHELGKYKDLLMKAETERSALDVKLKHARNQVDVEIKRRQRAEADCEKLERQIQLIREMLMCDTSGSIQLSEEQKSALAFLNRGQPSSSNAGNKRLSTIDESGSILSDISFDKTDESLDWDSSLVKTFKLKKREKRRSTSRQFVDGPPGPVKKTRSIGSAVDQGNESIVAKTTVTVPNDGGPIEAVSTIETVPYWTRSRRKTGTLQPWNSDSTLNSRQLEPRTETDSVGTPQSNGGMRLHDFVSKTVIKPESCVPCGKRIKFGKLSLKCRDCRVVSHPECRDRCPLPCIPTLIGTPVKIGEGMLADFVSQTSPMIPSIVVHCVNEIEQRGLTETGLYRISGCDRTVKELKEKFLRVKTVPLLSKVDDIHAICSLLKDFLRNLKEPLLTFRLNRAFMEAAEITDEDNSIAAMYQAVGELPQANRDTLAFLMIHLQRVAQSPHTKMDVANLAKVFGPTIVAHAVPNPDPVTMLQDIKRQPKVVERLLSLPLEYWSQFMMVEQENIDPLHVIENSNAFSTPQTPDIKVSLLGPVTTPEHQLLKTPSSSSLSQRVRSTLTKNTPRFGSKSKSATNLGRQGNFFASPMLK

Aminopeptidase N = target: T4, Aminopeptidase N (Plasmodium falciparum FcB1/Columbia, UniProt O96935); experiment: malaria alanyl aminopeptidase activity blockers – biochemical, fluorogenic H-Leu-NHMec substrate, 1536-well (AID 1445); set-up: species or system Plasmodium falciparum 3D7, 3D7
T4 sequence (O96935 whole entry): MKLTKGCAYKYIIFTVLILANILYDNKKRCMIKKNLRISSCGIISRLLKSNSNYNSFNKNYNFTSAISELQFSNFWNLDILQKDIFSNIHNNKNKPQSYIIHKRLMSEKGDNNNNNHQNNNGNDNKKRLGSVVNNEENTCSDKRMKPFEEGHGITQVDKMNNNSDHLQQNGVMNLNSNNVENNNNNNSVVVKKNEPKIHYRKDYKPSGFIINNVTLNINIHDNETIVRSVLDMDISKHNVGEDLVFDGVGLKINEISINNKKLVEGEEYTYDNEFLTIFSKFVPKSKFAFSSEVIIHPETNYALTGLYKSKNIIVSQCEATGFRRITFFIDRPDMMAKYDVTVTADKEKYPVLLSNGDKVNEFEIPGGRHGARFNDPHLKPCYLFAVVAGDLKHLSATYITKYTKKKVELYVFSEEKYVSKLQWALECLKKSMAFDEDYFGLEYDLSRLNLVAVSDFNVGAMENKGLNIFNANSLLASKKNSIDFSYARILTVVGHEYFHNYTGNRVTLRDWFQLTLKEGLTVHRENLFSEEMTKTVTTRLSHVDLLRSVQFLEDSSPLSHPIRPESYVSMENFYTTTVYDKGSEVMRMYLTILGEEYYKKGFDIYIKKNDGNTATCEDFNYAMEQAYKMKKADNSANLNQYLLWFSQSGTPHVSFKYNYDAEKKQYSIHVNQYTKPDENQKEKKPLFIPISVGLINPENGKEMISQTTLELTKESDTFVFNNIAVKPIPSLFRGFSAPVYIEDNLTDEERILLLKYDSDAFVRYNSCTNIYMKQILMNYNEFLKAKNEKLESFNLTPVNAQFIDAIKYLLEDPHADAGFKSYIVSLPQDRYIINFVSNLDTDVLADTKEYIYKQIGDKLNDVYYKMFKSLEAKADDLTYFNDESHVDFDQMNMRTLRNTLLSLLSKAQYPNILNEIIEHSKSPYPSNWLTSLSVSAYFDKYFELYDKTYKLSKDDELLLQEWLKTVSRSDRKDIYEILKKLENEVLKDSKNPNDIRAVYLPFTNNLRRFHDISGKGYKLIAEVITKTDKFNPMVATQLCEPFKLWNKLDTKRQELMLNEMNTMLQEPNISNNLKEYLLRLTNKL

[10] = viability of PTEN-deleted HCT116 cells – cell-based, HCT116 PTEN knockout, dose response (AID 1047); format: functional;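 also: HCT116 colon tumor cells with PTEN knocked out; cells exposed to compound for 60 hours before readout; potency for loss of cell viability measured by luminescence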
[11] = target: Heat shock protein HSP 90-alpha (Homo sapiens, UniProt P07900); format: functional, organism-based
[12] = viability of HCT116 lacking mutant beta-catenin – cell-based, human colon tumor, dose response (AID 1045); format: functional;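 also: HCT116 colon tumor cells with beta catenin knocked out; cells exposed to compound for 60 hours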
[13] = THP-1 cell cytotoxicity, dose response, cytotoxicity control for non-replicating M. tuberculosis project (AID 489025); format: functional
cells = format: functional
Genome polyprotein = Genome polyprotein (dengue virus type 2, UniProt P29990); experiment: flavivirus cap methylation enzyme inhibition – biochemical, confirmation dose response, primary screen (AID 588689); format: functional
[14] = target: Mitogen-activated protein kinase 10 (Homo sapiens, UniProt P53779); experiment: Dose response biochemical screening assay for inhibitors of c-Jun N-Terminal Kinase 3 (JNK3). [Related pubchem assays: 746 ]
Cytochrome P450 2C19 = Cytochrome P450 2C19 (Homo sapiens, UniProt P33261); experiment: Cytochrome panel assay with activity outcomes. Panel member name: p450-cyp2c19 Compounds with AC50 equal or less than 10 uM are considered active; format: functional; conditions: read-out: AC50

T2 sequence (P98170 whole entry): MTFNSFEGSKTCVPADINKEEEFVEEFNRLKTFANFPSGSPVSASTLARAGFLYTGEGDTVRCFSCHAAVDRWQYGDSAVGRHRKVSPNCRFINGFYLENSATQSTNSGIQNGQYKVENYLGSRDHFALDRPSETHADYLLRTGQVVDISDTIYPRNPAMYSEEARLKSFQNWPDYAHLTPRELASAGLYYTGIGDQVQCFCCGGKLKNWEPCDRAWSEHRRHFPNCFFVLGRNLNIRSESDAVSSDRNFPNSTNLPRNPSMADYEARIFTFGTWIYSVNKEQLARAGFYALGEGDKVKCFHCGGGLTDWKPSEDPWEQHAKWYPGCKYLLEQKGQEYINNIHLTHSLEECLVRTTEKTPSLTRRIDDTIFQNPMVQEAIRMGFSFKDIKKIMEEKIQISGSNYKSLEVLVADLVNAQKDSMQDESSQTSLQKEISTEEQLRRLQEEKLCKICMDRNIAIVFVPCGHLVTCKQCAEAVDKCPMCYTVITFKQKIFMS
Chain of Peroxisome proliferator-activated receptor gamma/Nuclear receptor coactivator 3 (P37231 whole entry): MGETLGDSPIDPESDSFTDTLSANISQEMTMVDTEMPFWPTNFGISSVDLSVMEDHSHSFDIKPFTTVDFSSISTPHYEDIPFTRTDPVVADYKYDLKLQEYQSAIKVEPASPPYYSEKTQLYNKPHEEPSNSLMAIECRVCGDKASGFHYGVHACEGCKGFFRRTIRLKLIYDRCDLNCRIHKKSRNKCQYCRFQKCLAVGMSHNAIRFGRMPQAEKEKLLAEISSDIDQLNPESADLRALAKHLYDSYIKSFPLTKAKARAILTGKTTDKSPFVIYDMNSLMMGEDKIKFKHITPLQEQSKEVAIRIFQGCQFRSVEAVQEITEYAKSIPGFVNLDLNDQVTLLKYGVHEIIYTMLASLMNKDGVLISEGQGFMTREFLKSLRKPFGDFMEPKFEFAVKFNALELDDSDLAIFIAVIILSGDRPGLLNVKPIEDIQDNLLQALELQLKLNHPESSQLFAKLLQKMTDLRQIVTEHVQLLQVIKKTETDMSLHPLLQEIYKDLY
Chain of Peroxisome proliferator-activated receptor gamma/Nuclear receptor coactivator 3 (Q9Y6Q9 whole entry, further chain): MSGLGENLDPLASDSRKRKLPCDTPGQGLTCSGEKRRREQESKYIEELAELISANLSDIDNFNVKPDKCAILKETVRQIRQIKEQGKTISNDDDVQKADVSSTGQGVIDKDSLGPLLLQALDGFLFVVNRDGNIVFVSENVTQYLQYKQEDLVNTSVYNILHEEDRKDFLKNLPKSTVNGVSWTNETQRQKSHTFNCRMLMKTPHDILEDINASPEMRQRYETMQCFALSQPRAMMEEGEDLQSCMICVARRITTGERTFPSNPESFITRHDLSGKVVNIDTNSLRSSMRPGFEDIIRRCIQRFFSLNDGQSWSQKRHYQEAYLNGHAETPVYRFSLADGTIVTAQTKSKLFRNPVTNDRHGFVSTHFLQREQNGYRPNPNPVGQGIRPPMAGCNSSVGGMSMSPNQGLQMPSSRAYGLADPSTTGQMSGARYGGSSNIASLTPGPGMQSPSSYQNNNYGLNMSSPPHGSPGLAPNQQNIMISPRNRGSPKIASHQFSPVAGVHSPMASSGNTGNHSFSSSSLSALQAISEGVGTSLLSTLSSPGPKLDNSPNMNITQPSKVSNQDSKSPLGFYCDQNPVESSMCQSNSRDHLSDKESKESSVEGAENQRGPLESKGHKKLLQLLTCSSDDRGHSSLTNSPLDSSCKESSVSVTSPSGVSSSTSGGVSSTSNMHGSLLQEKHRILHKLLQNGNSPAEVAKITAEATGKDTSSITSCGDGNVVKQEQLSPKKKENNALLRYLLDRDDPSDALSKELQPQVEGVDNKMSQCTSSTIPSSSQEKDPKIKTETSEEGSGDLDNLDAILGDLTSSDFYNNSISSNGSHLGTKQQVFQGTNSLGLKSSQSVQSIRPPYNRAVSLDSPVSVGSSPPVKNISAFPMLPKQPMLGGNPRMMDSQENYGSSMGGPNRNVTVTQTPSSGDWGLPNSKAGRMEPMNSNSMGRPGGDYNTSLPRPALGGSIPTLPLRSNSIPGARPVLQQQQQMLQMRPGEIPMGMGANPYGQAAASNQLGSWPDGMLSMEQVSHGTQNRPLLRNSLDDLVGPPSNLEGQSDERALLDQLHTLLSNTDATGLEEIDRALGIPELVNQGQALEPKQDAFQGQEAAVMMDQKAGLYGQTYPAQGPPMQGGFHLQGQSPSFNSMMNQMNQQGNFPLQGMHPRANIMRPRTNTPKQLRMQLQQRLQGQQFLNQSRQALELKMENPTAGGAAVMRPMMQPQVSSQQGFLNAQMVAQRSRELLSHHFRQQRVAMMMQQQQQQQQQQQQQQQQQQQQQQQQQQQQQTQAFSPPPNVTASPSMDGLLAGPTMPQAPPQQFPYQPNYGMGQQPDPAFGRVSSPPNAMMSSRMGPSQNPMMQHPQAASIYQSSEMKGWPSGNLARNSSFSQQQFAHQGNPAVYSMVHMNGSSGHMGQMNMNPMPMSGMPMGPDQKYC
Chain of Peroxisome proliferator-activated receptor gamma/Nuclear receptor coactivator 2 (P37231 whole entry): as the sequence (P37231 whole entry) above
Chain of Peroxisome proliferator-activated receptor gamma/Nuclear receptor coactivator 2 (Q15596 whole entry, further chain): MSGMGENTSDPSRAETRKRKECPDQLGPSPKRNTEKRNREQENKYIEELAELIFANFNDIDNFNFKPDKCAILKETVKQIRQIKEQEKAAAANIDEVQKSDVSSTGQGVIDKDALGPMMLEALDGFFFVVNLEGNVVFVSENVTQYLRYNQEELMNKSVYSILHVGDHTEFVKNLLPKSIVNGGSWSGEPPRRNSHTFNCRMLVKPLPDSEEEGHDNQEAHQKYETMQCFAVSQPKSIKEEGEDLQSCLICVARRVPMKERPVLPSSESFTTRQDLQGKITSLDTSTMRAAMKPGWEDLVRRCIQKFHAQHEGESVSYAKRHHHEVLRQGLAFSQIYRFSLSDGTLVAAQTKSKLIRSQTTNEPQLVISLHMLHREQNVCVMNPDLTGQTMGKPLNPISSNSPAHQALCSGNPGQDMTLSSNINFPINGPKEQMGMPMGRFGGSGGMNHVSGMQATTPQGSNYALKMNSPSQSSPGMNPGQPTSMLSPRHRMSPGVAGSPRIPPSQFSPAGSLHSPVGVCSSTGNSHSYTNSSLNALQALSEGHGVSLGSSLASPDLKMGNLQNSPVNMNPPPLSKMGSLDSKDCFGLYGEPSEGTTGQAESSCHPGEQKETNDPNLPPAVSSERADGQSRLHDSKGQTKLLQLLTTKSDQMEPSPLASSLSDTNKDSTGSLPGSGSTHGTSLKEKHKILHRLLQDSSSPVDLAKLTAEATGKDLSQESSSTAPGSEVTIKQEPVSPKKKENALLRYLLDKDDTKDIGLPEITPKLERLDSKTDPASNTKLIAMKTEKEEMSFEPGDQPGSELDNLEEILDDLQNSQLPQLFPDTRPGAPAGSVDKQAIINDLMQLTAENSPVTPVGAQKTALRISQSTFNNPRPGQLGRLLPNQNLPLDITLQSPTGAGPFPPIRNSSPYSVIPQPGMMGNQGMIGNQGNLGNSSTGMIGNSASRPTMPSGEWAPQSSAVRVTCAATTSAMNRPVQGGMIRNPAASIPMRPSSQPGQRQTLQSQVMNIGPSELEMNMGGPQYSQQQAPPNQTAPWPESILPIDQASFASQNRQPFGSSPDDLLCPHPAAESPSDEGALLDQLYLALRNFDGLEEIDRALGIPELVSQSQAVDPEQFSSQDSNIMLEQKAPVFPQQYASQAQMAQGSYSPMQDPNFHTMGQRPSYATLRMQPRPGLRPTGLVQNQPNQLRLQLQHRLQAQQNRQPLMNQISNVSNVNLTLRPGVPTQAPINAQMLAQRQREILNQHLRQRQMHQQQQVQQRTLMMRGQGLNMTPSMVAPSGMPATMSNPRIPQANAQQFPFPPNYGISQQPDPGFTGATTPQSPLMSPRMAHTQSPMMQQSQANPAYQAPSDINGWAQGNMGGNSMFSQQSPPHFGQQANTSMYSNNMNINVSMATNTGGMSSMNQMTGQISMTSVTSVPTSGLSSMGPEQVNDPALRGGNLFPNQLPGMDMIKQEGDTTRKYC
Chain of Mitogen-activated protein kinase 10 (P53779 whole entry): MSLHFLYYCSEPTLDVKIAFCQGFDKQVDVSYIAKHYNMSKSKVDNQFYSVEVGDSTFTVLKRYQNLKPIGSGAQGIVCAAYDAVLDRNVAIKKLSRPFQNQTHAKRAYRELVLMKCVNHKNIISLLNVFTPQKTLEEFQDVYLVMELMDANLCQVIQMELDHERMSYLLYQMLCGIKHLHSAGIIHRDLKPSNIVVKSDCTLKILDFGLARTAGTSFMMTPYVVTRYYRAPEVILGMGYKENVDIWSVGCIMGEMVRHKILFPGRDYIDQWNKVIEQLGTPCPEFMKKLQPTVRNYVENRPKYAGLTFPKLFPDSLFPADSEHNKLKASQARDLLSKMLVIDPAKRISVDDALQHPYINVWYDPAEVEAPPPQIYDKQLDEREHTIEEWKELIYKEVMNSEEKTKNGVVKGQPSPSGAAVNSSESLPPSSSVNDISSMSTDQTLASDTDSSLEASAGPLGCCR

## O=C(Nc1c(-c2ccccc2)[nH][nH]c1=O)c1cnccn1
[1]
  IC50: 42.5 µM (active)

## CCCc1nc(SCC(=O)Nc2ccc(S(=O)(=O)N(C)C)cc2)c2ccccc2n1
[2]
  IC50: > 100 µM (not active)
[3]
  IC50: > 100 µM (inactive)

## COc1ccc(/C=C2\CCNC2=O)cc1
P388/ADR
  GI50: 82.4 µM (inactive)
SN12K1
  GI50: > 100 µM (inactive)
P388
  GI50: > 100 µM (inactive)

## O=C(C1CC(c2ccc(F)cc2)=NO1)N1CCc2ccccc2C1 (stereo not drawn)
[2]
  IC50: > 100 µM (not active)
[3]
  IC50: > 100 µM (inactive)

## OC(c1cc(C(F)(F)F)nc2c(Cl)cc(Cl)cc12)C1CCCCN1 (stereo not drawn)
[4]
  AC50: 21.6 µM (active)
[5]
  CC50: 15.8 µM (active)

## O=C(NC(Cc1ccc(I)cc1)C(=O)O)c1ccc(I)cc1 (stereo not drawn)
P388/ADR
  GI50: 38 µM (inactive)
SN12K1
  GI50: > 100 µM (inactive)
P388
  GI50: 41.4 µM (inactive)

## CN(Cc1ccccc1)C(=O)CSc1cc(=O)n(C)c2ccccc12
[6]
  EC50: > 79.4 µM (not active)
[7]
  EC50: > 79.4 µM (inactive)
[8]
  EC50: > 79.4 µM (not active)

## C=CCn1c(=O)/c(=C/c2ccc(O)cc2)s/c1=C(/C#N)c1nnc2n1CCCCC2
[9]
  IC50: 58.7 µM (active)
Aminopeptidase N
  IC50: 51.1 µM (active)

## COC(=O)/C=C/C(=O)N1CCN(c2ccccc2)CC1
[2]
  IC50: > 100 µM (not active)
[3]
  IC50: > 100 µM (inactive)

## c1ccc(N=Nc2cn[nH]c2-c2ccco2)cc1
[2]
  IC50: > 100 µM (not active)
[3]
  IC50: > 100 µM (inactive)

## CC(=O)CSc1ncnc2c1oc1ccccc12
[6]
  EC50: > 79.4 µM (not active)
[7]
  EC50: > 79.4 µM (inactive)
[8]
  EC50: > 26.5 µM (not active)

## COc1ccccc1Cc1nc(-c2ccccc2)nn(C2OC(COC(C)=O)C(OC(C)=O)C(OC(C)=O)C2OC(C)=O)c1=S (stereo not drawn)
P388/ADR
  GI50: 19.6 µM (inactive)
SN12K1
  GI50: 9.95 µM (inactive)
P388
  GI50: 21.9 µM (inactive)

## COc1cccc(C2CC(c3c(O)nc4ccc(Cl)cc4c3-c3ccccc3)=NN2S(C)(=O)=O)c1OC (stereo not drawn)
Aminopeptidase N
  IC50: 78.2 µM (active)

## CCN1CCN(CCCNC(=O)Cn2cc3c(n2)CCCC3)CC1
[2]
  IC50: > 100 µM (not active)
[3]
  IC50: > 100 µM (inactive)

## NC(=O)c1ccc(/N=C/c2ccc([N+](=O)[O-])s2)cc1
[10]
  EC50: 5.94 µM (active)
[1]
  IC50: 2.47 µM (active)
[11]
  AC50: 1.98 µM (active)
[12]
  EC50: 5.3 µM (active)
[13]
  CC50: 19.2 µM (active)
cells
  IC50: 13.4 µM (active)

## COc1ccc(S(=O)(=O)CCC(=O)NC2CCCCC2)cc1
[2]
  IC50: > 100 µM (not active)
[3]
  IC50: > 100 µM (inactive)

## O=C(NNC(=O)c1ccc(O)cc1O)c1ccc(Cl)cc1
Aminopeptidase N
  IC50: 58.1 µM (active)

## O=C(O)c1cccc2c1C(=O)c1ccc(-c3ccc(F)cc3OCc3ccccc3)cc1S2(=O)=O
Genome polyprotein
  IC50: 50.5 µM (active)

## CCCCOC(=O)CNc1nnc(S)nc1O
[6]
  EC50: 91.3 µM (not active)
[7]
  EC50: 5 µM (active)
[8]
  EC50: 4.23 µM (active)

## CCOC(=O)c1c(C)nsc1S
[9]
  IC50: 56.6 µM (active)
[14]
  IC50: 30.5 µM (not active)
[6]
  EC50: > 79.4 µM (not active)
[7]
  EC50: > 79.4 µM (inactive)
[8]
  EC50: > 26.5 µM (not active)

## c1ccc2[nH]c(CSc3ncnc4c3oc3ccccc34)nc2c1
[14]
  IC50: > 93.1 µM (not active)
[6]
  EC50: > 79.4 µM (not active)
[7]
  EC50: 9.02 µM (active)
[8]
  EC50: 5.6 µM (active)

## CC(NC(=O)C(C)NC(=O)C(N)CCP(C)(=O)O)C(=O)O (stereo not drawn)
P388/ADR
  GI50: > 100 µM (inactive)
SN12K1
  GI50: > 100 µM (inactive)
P388
  GI50: > 31.6 µM (inactive)

## Cc1c2cnccc2c(C)c2c1c1ccccc1n2CCOC(=O)c1ccccc1
P388/ADR
  GI50: 9.23 µM (inactive)
Cytochrome P450 2C19
  AC50: 0.794 µM (inconclusive)
SN12K1
  GI50: 10.3 µM (inactive)
P388
  GI50: 4.95 µM (inactive)

## CC1C(=O)C(C)C(c2cccs2)N(N=O)C1c1cccs1 (stereo not drawn)
P388/ADR
  GI50: 36 µM (inactive)
SN12K1
  GI50: > 100 µM (inactive)
P388
  GI50: 39.4 µM (inactive)
